Each block holds one molecule with its values, some of them ahead of it. Where no end group is shown, it is not given here.
Tests used:
BAZ2B PHD = target: T1, BAZ2B PHD (Homo sapiens, UniProt Q9UIF8); test: ITC, histone peptide binding to BAZ2B PHD; conditions: 20 mM HEPES (pH 7.5–8), 150 mM NaCl, 0.5 mM TCEP, 293 or 298 K, protein 60–120 μM in cell, peptide 800–1,500 μM in syringe, ± error of nonlinear least-squares fit
T1 construct: 1928- 1983 for BAZ2B) and bromodomains; His6-SUMO (N, cleaved yes); made in house; host or cells: E. coli BL21(DE3) Rosetta or BL21(DE3)-R3-pRARE2
T1 sequence (Q9UIF8 1928-1983): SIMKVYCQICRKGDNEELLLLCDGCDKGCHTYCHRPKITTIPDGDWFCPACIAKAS
Procedure: (§1) All calorimetric experiments were performed on an ITC200 or VP-ITC microcalorimeters (MicroCal). Protein solutions were buffer exchanged by gel filtration into buffer (20 mM HEPES [pH 8], 150 mM NaCl, 0.5 mM Tris [2-carboxyethyl]phosphine [TCEP]), and lyophilized histone peptides were dissolved in the same buffer. All measurements were carried out at 293 or 298 K. Protein solutions (60–120 μM) in the calorimetric cell were titrated with the peptide solutions (800–1,500 μM) in the syringe. The data were analyzed with the MicroCal ORIGIN software package using, in most cases, a single binding site model. The first data point was excluded from the analysis. […]
(§2) The cDNAs encoding tandem PHD zinc finger and bromodomain of human TIP5 […]
(§3) GeneBank: Q9UIF8) were synthesized by GenScript with codons optimized f or E. coli. expression and were subcloned into a modif ied pET15 vector using NdeI/XhoI sites f or expression as recombinant proteins with a His6 tag fused with small ubiquitin like modifier (SUMO)-1 fusion tag at the N terminus. cDNA sequences were used as a template to amplify single PHD zinc fingers (residues 1673- 1728 for TIP5; residues 2054- 2168 f or BAZ2B) regions. […]

TIP5 PHD = target: T2, TIP5 PHD (Homo sapiens, UniProt Q9UIF9); test: ITC, histone peptide binding to TIP5 PHD; conditions: 20 mM HEPES (pH 7.5–8), 150 mM NaCl, 0.5 mM TCEP, 293 or 298 K, protein 60–120 μM in cell, peptide 800–1,500 μM in syringe, ± error of nonlinear least-squares fit
T2 construct: single PHD zinc fingers (residues 1673- 1728 for TIP5); residues; His6-SUMO (N, cleaved yes); made in house; host or cells: E. coli BL21(DE3) Rosetta or BL21(DE3)-R3-pRARE2
T2 sequence (Q9UIF9 1673-1728): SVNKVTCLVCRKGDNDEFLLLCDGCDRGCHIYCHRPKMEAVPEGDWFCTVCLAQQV
Procedure: as §1, §2, §3

BAZ2B BRD = target: T3, BAZ2B BRD (Homo sapiens, UniProt Q9UIF8); test: ITC, histone peptide binding to BAZ2B BRD; conditions: 20 mM HEPES (pH 7.5–8), 150 mM NaCl, 0.5 mM TCEP, 293 or 298 K
T3 construct: 2054- 2168 f or BAZ2B) regions; hexa-histidine (pNIC28-Bsa4, TEV site) (N, cleaved yes); made in house; host or cells: E. coli BL21(DE3) Rosetta or BL21(DE3)-R3-pRARE2
T3 sequence (Q9UIF8 2054-2168): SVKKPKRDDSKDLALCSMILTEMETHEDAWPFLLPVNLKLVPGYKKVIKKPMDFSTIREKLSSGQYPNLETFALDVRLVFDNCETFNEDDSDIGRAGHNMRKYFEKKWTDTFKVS
Procedure: as §1, §2
GeneBank: Q9UIF8) were synthesized by GenScript with codons optimized f or E. coli. expression and were subcloned into a modif ied pET15 vector using NdeI/XhoI sites f or expression as recombinant proteins with a His6 tag fused with small ubiquitin like modifier (SUMO)-1 fusion tag at the N terminus. cDNA sequences were used as a template to amplify single PHD zinc fingers (residues 1673- 1728 for TIP5; residues 2054- 2168 f or BAZ2B) regions. Single PHD zinc f ingers were introduced into the same modif ied SUMO tagged plasmid whereas single bromodomains were f urther subcloned into pET28 derived expression vectors, pNIC28- Bsa4 using ligation independent cloning (Stols et al., 2002).
Protein Expression and Purification
(§4) Best expression constructs encoding all target proteins were transformed into E. coli competent BL21(DE3) Rosetta cells (Invitrogen) or into BL21 (DE3)-R3-pRARE2 cells (phage- resistant derivative with a pRARE plasmid encoding rare codon tRNAs). Cells were grown at 37 °C in Terrific Broth (Sigma) from overnight cultures until A600 reached between 0.6- 0.8, then the media was cooled and 0.2 mM isopropyl-β-Dthiogalactopyranoside (IPTG) was added to induce the protein expression at 20 °C f or 16 hours. An extra 0.1 mM ZnCl 2 was added in the protein expression to those targets that contained a PHD zinc f inger.
(§5) Different purification procedures have been optimized for each target protein. In common, E. coli overexpressed cells were lysed using an EmulsiFlex-C5 hig h-pr es s ure homogenizer (Avestin - Mannheim, Germany) or high -pressure cell disruption (Constant Systems Limited) in loading buffer A from the nickel affinity column (HisTrap Chelating FF 5ml) in the presence of Protease Inhibitor Cocktail EDTA-free (Roche).
Lysates were cleared by centrif ugation (14,000 x g f or 45m in at 4 °C, JLA 16.250 rotor, on a Beckman Coulter Avanti J-20 XP centrif uge). After centrif ugation, the supernatant was loaded onto the nickel column and eluted in an imidazole linear gradient. The

BAZ2B PHD-BRD = target: T4, BAZ2B PHD-BRD (Homo sapiens, UniProt Q9UIF8); test: ITC, histone peptide binding to tandem BAZ2B PHD-BRD; conditions: 20 mM HEPES (pH 7.5–8), 150 mM NaCl, 0.5 mM TCEP, 293 or 298 K, protein 60–120 μM in cell, peptide 800–1,500 μM in syringe, ± error of nonlinear least-squares fit
T4 construct: human BAZ2B (residues 1928-2168,; His6-SUMO (N, cleaved yes); made in house; host or cells: E. coli BL21(DE3) Rosetta or BL21(DE3)-R3-pRARE2
T4 sequence (Q9UIF8 1928-2168): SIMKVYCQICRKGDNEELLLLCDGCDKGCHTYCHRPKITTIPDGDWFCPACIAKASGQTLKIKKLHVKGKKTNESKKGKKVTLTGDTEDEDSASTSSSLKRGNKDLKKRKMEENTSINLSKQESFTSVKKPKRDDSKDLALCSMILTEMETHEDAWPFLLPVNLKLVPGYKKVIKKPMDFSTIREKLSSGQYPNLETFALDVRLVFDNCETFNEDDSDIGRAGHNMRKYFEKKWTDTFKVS
Procedure: as §1, §2, §3

TIP5 PHD-BRD = target: T5, TIP5 PHD-BRD (Homo sapiens, UniProt Q9UIF9); test: ITC, histone peptide binding to tandem TIP5 PHD-BRD; conditions: 20 mM HEPES (pH 7.5–8), 150 mM NaCl, 0.5 mM TCEP, 293 or 298 K, protein 60–120 μM in cell, peptide 800–1,500 μM in syringe, ± error of nonlinear least-squares fit
T5 construct: (residues 1673– 1901, UniProt: Q9UIF9); His6-SUMO (N, cleaved yes); made in house; host or cells: E. coli BL21(DE3) Rosetta or BL21(DE3)-R3-pRARE2
T5 sequence (Q9UIF9 1673-1901): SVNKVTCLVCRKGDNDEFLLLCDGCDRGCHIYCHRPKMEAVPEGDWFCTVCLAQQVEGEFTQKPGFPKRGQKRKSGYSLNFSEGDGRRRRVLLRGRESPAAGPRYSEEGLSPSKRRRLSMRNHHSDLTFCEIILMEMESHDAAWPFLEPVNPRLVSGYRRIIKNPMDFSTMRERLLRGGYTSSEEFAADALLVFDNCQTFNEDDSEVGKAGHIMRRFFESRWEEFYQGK
Procedure: as §1, §2, §3

TIP5 BRD = target: T6, TIP5 BRD (Homo sapiens, UniProt Q9UIF9); test: ITC, histone peptide binding to TIP5 BRD; conditions: 20 mM HEPES (pH 7.5–8), 150 mM NaCl, 0.5 mM TCEP, 293 or 298 K
T6 construct: (residues 1797- 1899 for TIP5, residues); hexa-histidine (pNIC28-Bsa4, TEV site) (N, cleaved yes); made in house; host or cells: E. coli BL21(DE3) Rosetta or BL21(DE3)-R3-pRARE2
T6 sequence (Q9UIF9 1797-1899): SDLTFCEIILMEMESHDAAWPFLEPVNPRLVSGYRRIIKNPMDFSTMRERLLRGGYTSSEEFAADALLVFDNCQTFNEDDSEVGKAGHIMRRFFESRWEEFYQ
Procedure: All calorimetric experiments were performed on an ITC200 or VP-ITC microcalorimeters (MicroCal). […] The data were analyzed with the MicroCal ORIGIN software package using, in most cases, a single binding site model. The first data point was excluded from the analysis. […]
as §2
as §3, with “a” for “a template to amplify single PHD zinc fingers (residues 1673- 1728 for TIP5; residues 2054- 2168 f or BAZ2B) regions.”
Single PHD zinc f ingers were introduced into the same modif ied SUMO tagged plasmid whereas single bromodomains were f urther subcloned into pET28 derived expression vectors, pNIC28- Bsa4 using ligation independent […]
Protein Expression and Purification […]
as §4, with “competent” for “Best expression constructs encoding all target proteins were transformed into E. coli competent”
as §5, with “(Roche). […]” for “(Roche).”
on a Beckman Coulter Avanti J-20 XP centrif uge). After centrif ugation, the supernatant was loaded onto the nickel column and eluted in an imidazole linear gradient. The

BAZ2 BRD = system: BAZ2 BRD; design: method as in Structural Genomics Consortium [SGC] website; conditions: ref Structural Genomics Consortium [SGC] website; cited from earlier work
[1] = ITC, protein 60–120 μM in cell, peptide 800–1,500 μM in syringe, ± error of nonlinear least-squares fit

Kd (BAZ2B PHD): 3.98 ± 0.61 µM
Kd (TIP5 PHD): 2.5 ± 0.43 µM
Molecule: CNCCCC[C@H](NC(=O)[C@@H](NC(=O)[C@H](CCCNC(=N)N)NC(=O)[C@H](C)N)[C@@H](C)O)C(=O)N[C@@H](CCC(N)=O)C(=O)N[C@H](C(=O)N[C@@H](C)C(=O)N[C@@H](CCCNC(=N)N)C(=O)N[C@@H](CCCCN)C(=O)O)[C@@H](C)O [H3(1–9)K4me]

KD (BAZ2B BRD; [1]): no binding
Molecule: Lys-Ser-Thr-Gly-Gly-Kac-Ala-Pro-Ala-Gln [H3(9-19)K14ac [R17A], mutated H3K14ac peptide, R17 to A17]

Kd (BAZ2B PHD-BRD): 2.33 ± 0.19 µM
Kd (TIP5 PHD-BRD): 1.87 ± 0.29 µM
Molecule: CC(=O)NCCCC[C@H](NC(=O)CNC(=O)CNC(=O)[C@@H](NC(=O)[C@H](CO)NC(=O)[C@H](CCCCN)NC(=O)[C@H](CCCNC(=N)N)NC(=O)[C@H](C)NC(=O)[C@@H](NC(=O)[C@H](CCC(N)=O)NC(=O)[C@H](CCCCN)NC(=O)[C@@H](NC(=O)[C@H](CCCNC(=N)N)NC(=O)[C@H](C)N)[C@@H](C)O)[C@@H](C)O)[C@@H](C)O)C(=O)N[C@@H](C)C(=O)N1CCC[C@H]1C(=O)N[C@@H](CCCNC(=N)N)C(=O)N[C@@H](CCCCN)C(=O)O [H3(1–18)K14ac]

Kd (BAZ2B PHD): 3.07 ± 0.71 µM
Kd (TIP5 PHD): 2.51 ± 0.63 µM
Molecule: C[C@H](N)C(=O)N[C@@H](CCCNC(=N)N)C(=O)N[C@H](C(=O)N[C@@H](CCCCN)C(=O)N[C@@H](CCC(N)=O)C(=O)N[C@H](C(=O)N[C@@H](C)C(=O)N[C@@H](CCCNC(=N)N)C(=O)N[C@@H](CCCCN)C(=O)O)[C@@H](C)O)[C@@H](C)O [H3(1–9)]

KD (TIP5 BRD; [1]): no binding
Molecule: Gly-Ala-Kac-Arg-His-Ala-Lys-Val-Leu [H4(14-22)K16ac [R19A], mutated H4K16ac peptide, R19 to A19]

N (TIP5 BRD; ITC stoichiometry, ± fit error): 1.186 ± 0.015
TΔS (TIP5 BRD; ITC): -6.533 kcal/mol
ΔG (TIP5 BRD; ITC): -6.207 kcal/mol
TΔS (TIP5 BRD; ITC, listed as H4(14-22)K16ac): -6.533 kcal/mol
ΔG (TIP5 BRD; ITC, listed as H4(14-22)K16ac): -6.206 kcal/mol
ΔH (TIP5 BRD; ITC, ± fit error): -12.740 ± 0.226 kcal/mol
ΔH (TIP5 BRD; ITC, ± fit error, listed as H4(14-22)K16ac): -12.740 ± 0.226 kcal/mol
N (BAZ2B BRD; ITC stoichiometry, ± fit error): 1.062 ± 0.064
TΔS (BAZ2B BRD; ITC): 2.989 kcal/mol
ΔG (BAZ2B BRD; ITC): -5.809 kcal/mol
ΔH (BAZ2B BRD; ITC, ± fit error): -2.820 ± 0.223 kcal/mol
Molecule: GAK(Ac)RHRKVL [H4(14–22)K16ac]

Molecule: CCCOc1ccn2c(C(C)=O)cc(-c3ccccc3S(C)(=O)=O)c2c1 [GSK2801]
potency/selectivity in words (BAZ2 BRD): selective nanomolar

Kd (TIP5 BRD; [1]): 26.1 ± 0.37 µM
Kd (BAZ2B BRD; [1]): 42.41 ± 0.42 µM
Molecule: GAK(Ac)RHRK(Ac)VL [H4(14–22)K16acK20ac]

Kd (TIP5 BRD; [1]): 63.25 ± 0.11 µM
Molecule: GGK(Ac)GLGK(Ac)G [H4(6–13)K8acK12ac]
